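Growth conditions: 96-well plates. Treatment: test compound, 48 hours, 5 concentrations. Analysis: linear interpolation between bracketing concentrations; unreached endpoints set to highest concentration. The concentration for 50% growth inhibition is given as GI50. TGI marks complete inhibition of growth.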
Tests used:
Assay in all cases: growth of human tumour cells (NCI), 48 h
[1] = system: NCI-H226 lung
[2] = system: HCC-2998 colon
[3] = system: SK-MEL-2 melanoma
[4] = system: UO-31 renal
[5] = system: MDA-MB-231 breast
[6] = system: SF-539 CNS
[7] = system: RXF 393 renal
[8] = system: NCI/ADR-RES ovarian
[9] = system: M14 melanoma
[10] = system: OVCAR-3 ovarian

Row | Structure (SMILES) | GI50 [1] | TGI [1] | GI50 [2] | TGI [2] | GI50 [3] | TGI [3] | GI50 [4] | TGI [4] | GI50 [5] | TGI [5] | GI50 [6] | TGI [6] | GI50 [7] | TGI [7] | GI50 [8] | TGI [8] | GI50 [9] | TGI [9] | GI50 [10] | TGI [10]
1 | Nc1nn(C(=O)Nc2ccc(Cc3ccccc3)cc2)c2ccccc12 | 13.5 µM | 58.3 µM | 4.27 µM | 35.9 µM | 36.4 µM | > 100 µM | 0.347 µM | > 100 µM | 0.847 µM | 43.9 µM | 0.495 µM | 5.36 µM | 22.2 µM | 58.2 µM | 7.87 µM | > 100 µM | 0.772 µM | > 100 µM | 6.23 µM | 63.1 µM
2 | COc1cccc(-c2cc(NCc3ccc4c(c3)OCO4)nc(N)n2)c1 | 11.7 µM | 32.5 µM | 0.137 µM | 2.9 µM | 0.219 µM | 17.9 µM | 0.104 µM | 17 µM | 0.228 µM | 13.7 µM | 0.0909 µM | 3.22 µM | 0.11 µM | 17.2 µM | 0.0458 µM | 0.494 µM | 0.0479 µM | 1.91 µM | 0.0409 µM | 0.988 µM
3 | CCN(CC)CCCC(C)Nc1ccnc2cc(Cl)c(SCc3ccccc3)cc12 (centres undefined) | 2.71 µM | 8.48 µM | 0.511 µM | 1.88 µM | 1.64 µM | 3.22 µM | 1.35 µM | 2.95 µM | 1.27 µM | 2.9 µM | 0.626 µM | 2.04 µM | 1.42 µM | 2.78 µM | 1.44 µM | 3.17 µM | 0.189 µM | 0.351 µM | 2.31 µM | 8.07 µM
4 | Cc1cccc2c(=O)c3c(sc12)c(NCCN)nc1ccccc13 | 0.904 µM | 2.33 µM | 0.798 µM | 1.58 µM | 0.995 µM | 2.15 µM | 0.541 µM | 1.15 µM | 0.664 µM | 1.41 µM | 0.917 µM | 1.77 µM | 1.03 µM | 2.75 µM | 0.909 µM | 1.95 µM | 0.808 µM | 1.55 µM | 0.888 µM | 1.79 µM
5 | OCCCNC(=S)Nc1ccc(-c2nc3ccccc3s2)cc1 | 18.5 µM | 49.6 µM | 13.7 µM | 26.8 µM | 31.6 µM | > 100 µM | 12 µM | 60.7 µM | 16.5 µM | 43.5 µM | 29.8 µM | 95.4 µM | 10.4 µM | 52.4 µM | 25.2 µM | 66.6 µM | 23.3 µM | 49 µM | 15 µM | 59.8 µM
6 | O=C(Nc1cccc2ccccc12)c1cc2ccccc2cc1O | 2.5 µM | 9.42 µM | 3.5 µM | 13.3 µM | 2.14 µM | 4.69 µM | 1.22 µM | 4.95 µM | 1.77 µM | 4.46 µM | 3.28 µM | 12.8 µM | 2.71 µM | 6.68 µM | 2.17 µM | 8.07 µM | 3.14 µM | 20.4 µM | 2.16 µM | 6.85 µM
7 | CCOC(=O)c1c2c(n3cccc(F)c13)C(=O)c1ncccc1C2=O | 0.51 µM | 5.11 µM | 1.29 µM | 15.4 µM | 4.81 µM | 73.7 µM | 0.0189 µM | 1.42 µM | 4.14 µM | 64.7 µM | 0.157 µM | 1.35 µM | 0.412 µM | 4.1 µM | 0.436 µM | 6.82 µM | 0.049 µM | 1.29 µM | 0.22 µM | 2.42 µM
8 | COc1ccc(OC)c(/C=C/c2cnnc3ccccc23)c1 |  | > 10 µM |  | > 10 µM |  | 6.43 µM |  | > 10 µM |  | > 10 µM |  | 8.62 µM |  | > 10 µM |  | 7.81 µM |  | > 10 µM |  | > 10 µM
9 | COc1cc2c(/C=C3/C(=O)Nc4c3ccc3ccccc43)c(Cl)[nH]c2cc1C | 0.249 µM | 33.2 µM | < 0.005 µM | < 0.005 µM | 0.872 µM | > 30.1 µM | 0.0216 µM | > 34.1 µM | 0.0366 µM |  | 0.0106 µM | 0.119 µM | 0.0999 µM | 33.4 µM | 0.0139 µM | 1.09 µM | 0.0119 µM | 0.032 µM | 0.00854 µM | 0.0294 µM
10 | COc1ccc2cc(C(=O)/C=C/c3ccccc3OC)ccc2c1 | 3.24 µM | 18.7 µM | 5.92 µM | 13 µM | 10.3 µM | 35.2 µM | 5.93 µM | 18.8 µM | 2.73 µM | 21.7 µM | 1.72 µM | 4.6 µM | 2.54 µM | 7.63 µM | 3.19 µM | > 37.4 µM | 4.34 µM | 25.6 µM | 0.821 µM | 3.77 µM
11 | COc1ccc2c(c1)c(=O)oc1cc(OC/C(=N\O)c3ccc(F)cc3)ccc12 | 37 µM | > 100 µM | 16.4 µM | 33.5 µM | 19.1 µM | 47.4 µM | 14.3 µM | 28.9 µM | 18 µM | 43.4 µM | 21.4 µM | 40.9 µM | 21.8 µM | 58.6 µM | 18.2 µM | 49.7 µM | 15.7 µM | 30.7 µM | 20.4 µM | 47.4 µM
